Experimental findings from patent US6953786B2, “Compositions comprising plant-derived polyphenolic compounds and inhibitors of reactive oxygen species and methods of using thereof” (The Regents of the University of California, priority 2002, dated 2005) are described below.

Residues, ends and D or L forms follow the SMILES beside them. *: point of attachment. Cbz = O=C(OCc1ccccc1)*

The subject of experiment [1] is BSp73AS and Mia PACA-2 cells. Description: Caspase-3 activity and annexin staining with MG-132 (FIG. 14C). The note with it: MG-132 20 μM. Type of experiment: cell-based.
For experiment [2], the system named is NF-κB. Description: NF-κB DNA binding activity (EMSA / gel shift). In kind it is cell-based, human. To be noted: Mia PACA-2, 24 hours, no serum; polyphenols 100 μM, MG-132 20 μM. The method, then: In order to determine the role of activated NF-κB in the regulation of apoptosis caused by the polyphenolic compound, the following assay was conducted. BSp73AS cells were cultured for 6 hours and Mia PACA-2 cells were cultured in the absence of serum or growth factors for 24 hours in the absence (controls) or presence of rutin, quercetin, trans-resveratrol, or genistein, each at 100 μM and 20 μM proteosome inhibitor MG-132. Nuclear proteins were isolated and analyzed for NF-κB DNA binding activity with electrophoretic mobility shift assay (EMSA).
Specifically, aliquots of nuclear extracts with equal amount of protein, about 2 to about 10 μg, were mixed in 20 μl reactions with a buffer comprising 10 mM HEPES (pH 7.6), 50 mM KCl, 0.1 mM EDTA, 1 mM DTT, 10% (vol/vol) glycerol and 3 μg poly[d (I-C)]. After aliquots were equilibrated on ice for 5 minutes, binding reactions were stared by addition of 20-60,000 counts/min (20 fM) of ^32P-labeled DNA probes and allowed to proceed for 25-30 minutes at room temperature or up to 1 hour on ice. The oligonucleotide probe
containing the κB binding motif (underlined) was annealed to the complementary oligonucleotide with a 5′-G overhang and end-labeled using Klenow DNA polymerase I. The samples were electrophoresed at room temperature in 0.5×TBE buffer (1×TBE 89 mM Tris base, 89 mM boric acid and 2 mM EDTA) on nondenaturing 4.5% polyacrylamide gel at 200 V. Gels were dried and directly analyzed in the PhosphorImager (Molecular Dynamics, Sunnyvale, Calif.). The experiment was repeated twice.
To study the effects of combinations of DPI and polyphenolic compounds on serum-induced activation of NF-κB and protection from apoptosis, the following assay was conducted. Mia PACA-2 cells were cultured for 72 hours in the presence of serum with or without 100 μM trans-resveratrol, 15 μM DPI, a combination of trans-resveratrol, 100 μM genistein, or a combination of genistein and DPI. NF-κB binding activity was measured in nuclear extracts by gel shift assay as described above.
To determine the effects of LY29400 and DPI on NF-κB activation, Mia PACA-2 cells were cultured for 72 hours in the presence of serum and 15 μM DPI with or without 50 μM LY294002. NF-κB DNA binding activity was measured in nuclear extracts by gel shift assay as described above.
(In general: In EMSA bound probe runs differently from free probe, usually more slowly.)

The subject of experiment [3] is NF-κB. Kind of experiment: NF-κB DNA binding activity (EMSA). Type of experiment: cell-based, rat. To be noted: BSp73AS, 6 hours; polyphenols 100 μM, MG-132 20 μM. The method, then:
In order to determine the role of activated NF-κB in the regulation of apoptosis caused by the polyphenolic compound, the following assay was conducted. BSp73AS cells were cultured for 6 hours and Mia PACA-2 cells were cultured in the absence of serum or growth factors for 24 hours in the absence (controls) or presence of rutin, quercetin, trans-resveratrol, or genistein, each at 100 μM and 20 μM proteosome inhibitor MG-132. Nuclear proteins were isolated and analyzed for NF-κB DNA binding activity with electrophoretic mobility shift assay (EMSA). Specifically, aliquots of nuclear extracts with equal amount of protein, about 2 to about 10 μg, were mixed in 20 μl reactions with a buffer comprising 10 mM HEPES (pH 7.6), 50 mM KCl, 0.1 mM EDTA, 1 mM DTT, 10% (vol/vol) glycerol and 3 μg poly[d (I-C)]. After aliquots were equilibrated on ice for 5 minutes, binding reactions were stared by addition of 20-60,000 counts/min (20 fM) of ^32P-labeled DNA probes and allowed to proceed for 25-30 minutes at room temperature or up to 1 hour on ice. The oligonucleotide probe containing the κB binding motif (underlined) was annealed to the complementary oligonucleotide with a 5′-G overhang and end-labeled using Klenow DNA polymerase I. The samples were electrophoresed at room temperature in 0.5×TBE buffer (1×TBE 89 mM Tris base, 89 mM boric acid and 2 mM EDTA) on nondenaturing 4.5% polyacrylamide gel at 200 V. Gels were dried and directly analyzed in the PhosphorImager (Molecular Dynamics, Sunnyvale, Calif.). The experiment was repeated twice.

Take `CC(C)C[C@@H](C=O)NC(=O)[C@H](CC(C)C)NC(=O)[C@H](CC(C)C)NC(=O)OCc1ccccc1` [MG-132, reference compound] (Cbz-Leu-Leu-Leu-aldehyde): the caspase-3 activity entry in experiment [1] was “small increase in caspase-3 activity”. Moreover, the “apoptosis (annexin staining)” value in experiment [1] (polyphenols 100 μM) is “does not increase apoptosis rates to the same extent as trans-resveratrol”. The “NF-κB activation (DNA binding)” value in experiment [2] and in experiment [3] was “blocks NF-κB activation” throughout.
